Assay results as given in US12076307B2, “Compositions for prevention or treatment of acute radiation syndrome and other radiation exposure” (priority 2017, dated 2024).

Assays:
[1] = tested on: Balb/c mice, 1 Gy gamma radiation + 5-Fluorouracil + tongue scratch; test: Radiation-induced oral mucositis ARS model: survival, mucositis, blood neutrophils; type: in vivo, mouse; conditions: PLAG 250 mg/kg/day oral
Protocol: In order to further confirm the effect of PLAG on the acute radiation syndrome, an animal model of radiation-induced oral mucositis was prepared and tested as an acute radiation syndrome animal model with severer conditions than those in Example 1 above. First, Balb/c mice (8-week-old female) were purchased from Koatech (Republic of Korea) and maintained in a specific pathogen-free (SPF) environment to establish a radiation-induced oral mucositis model. In this example, first group of oral mucositis induced group (negative control) was compared to the second group where PLAG was orally administered to animals with induced oral mucositis.
Specifically, mice were exposed to 1 Gy whole body gamma radiation and scars of 0.2 cm on the mice tongue were scratched at 0, 7, 10 and 16 days with the same force and depth using an 18 gauge needle. On day 2 post-irradiation, 5-Fluorouracil (50 mg/kg/day) was intraperitoneally administered and PLAG was administered orally at 250 mg/kg/day for 18 days (Table 2).
Oral mucositis level was determined by counting the ulcer formation and edema of the tongue and the incidence of wound atrophy, and calculating the score of oral mucositis by a total of 5 blinded observers. On the 7th and 10th day, the blood of the experimental groups was collected and the number of neutrophils in the blood was measured by measuring the Complete Blood Count (CBC) using a Mindray BC-5300 auto hematology analyzer (Shenzhen Mindray Bio-medical Electronics, China).

[2] = tested on: Balb/c mice, TBI 6.5 or 8 Gy; test: Radiation-induced skin damage (erythema) in lethal ARS mouse models; type: in vivo
Description: In order to evaluate effects of PLAG on recovery skin damage of animal models exposed to radiation, the following test groups were constructed as shown in Table 4 and results are shown in FIGS. 13-15. As discussed in Examples above, the first group of untreate group (negative control) of mice after radiation was compared to the second group of treated group of mice with PLAG after radiation.
In addition to the ARS survival studies that have been conducted in mice, a series of studies that probe secondary measures of efficacy in radiation-induced skin damage in the Balb/c mice (n=10/sex/group). […] The development of skin damage (erythema and reddening) on the tails were evaluated.
In the following study, Balb/c mice (n=5 females/group) were exposed with a supra-lethal radiation dosage of 8 Gy and treated with EC-18 daily at 250 mg/kg/day for 17 days.
The secondary measures of EC-18's efficacy on the supra-LD (8 Gy) of radiation-induced skin damage were assessed. Female BALB/c mice (9 weeks of age) were randomly divided into 2 cohorts and daily administered in-life with the vehicle control (PBS) and EC-18 at 250 mg/kg (n=5/each cohort).

[3] = tested on: Balb/c mice, gamma-ray 6.11 Gy; test: DAMP (HMGB1, S100A9) in blood of irradiated mice; type: in vivo, mouse; conditions: 50 and 250 mg/kg oral 3 days from day 1
Protocol: To confirm the proposed mechanism of EC-18 in the in vivo model, female Balb/c mice were irradiated with a gamma-ray of 6.11 Gy on day 0. Then, EC-18 (50 and 250 mg/kg) or PBS was orally administered for 3 consecutive days from day 1 and the mice were sacrificed on the third day. […] While, from the EC-18-treated group, the amount of DAMP reduced compared to the control group, supporting the proposed mechanism of EC-18. Establishment of a Balb/C Mouse Model for ARS

[4] = Plasma concentrations of EC-18 in non-irradiated and irradiated mice; type: in vivo; conditions: male, Balb/c, mouse, po
Protocol: A day after 6.11 Gy gamma-radiation, both irradiated and non-irradiated male Balb/c mice (n=5) were orally administered daily with 50, 100, 250 or 500 mg/kg of EC-18 up to 14 days and analyzed for PK parameters on days 7 and 14 post-radiation (Table 21).

[5] = In vitro plasma stability, human plasma; type: in vitro ADME; conditions: Humans; 1 μM; 37° C.; n=3
Protocol: (§1) To assess the stability of EC-18 in plasma, the test material, or the standard reference material (test concentration 1 μM) was mixed with rat and human plasma and allowed to react for 1 hr at 37° C. Then, the residual EC-18 concentration was measured by LC-MS/MS. As standard reference materials, albendazole (a drug with high plasma stability) and vinpocetine (a drug with low plasma stability) were tested in parallel. When allowed to react with rat and human plasma for 1 hr, the residual EC-18 concentration in both rat and human plasma was >99% of the initial dose.

[6] = In vitro plasma stability, rat plasma; type: in vitro ADME; conditions: Rats; 1 μM; 37° C.; n=3
Protocol: as §1

[7] = 50 mg/kg, day 7, 50 mg/kg oral daily, Irradiated 6.11 Gy
[8] = 50 mg/kg, day 7, 50 mg/kg oral daily, Non-irradiated
[9] = 50 mg/kg, day 14, 50 mg/kg oral daily, Irradiated 6.11 Gy
[10] = 50 mg/kg, day 14, 50 mg/kg oral daily, Non-irradiated
[11] = 100 mg/kg, day 7, 100 mg/kg oral daily, Irradiated 6.11 Gy
[12] = 100 mg/kg, day 7, 100 mg/kg oral daily, Non-irradiated
[13] = 100 mg/kg, day 14, 100 mg/kg oral daily, Irradiated 6.11 Gy
[14] = 100 mg/kg, day 14, 100 mg/kg oral daily, Non-irradiated
[15] = 250 mg/kg, day 7, 250 mg/kg oral daily, Irradiated 6.11 Gy
[16] = 250 mg/kg, day 7, 250 mg/kg oral daily, Non-irradiated
[17] = 250 mg/kg, day 14, 250 mg/kg oral daily, Irradiated 6.11 Gy
[18] = 250 mg/kg, day 14, 250 mg/kg oral daily, Non-irradiated
[19] = 500 mg/kg, day 7, 500 mg/kg oral daily, Irradiated 6.11 Gy
[20] = 500 mg/kg, day 7, 500 mg/kg oral daily, Non-irradiated
[21] = 500 mg/kg, day 14, 500 mg/kg oral daily, Irradiated 6.11 Gy
[22] = 500 mg/kg, day 14, 500 mg/kg oral daily, Non-irradiated

## CCCCC/C=C\C/C=C\CCCCCCCC(=O)OC(COC(C)=O)COC(=O)CCCCCCCCCCCCCCC (centres unmarked) [EC-18, 1-palmitoyl-2-linoleoyl-3-acetylglycerol]
[1]
  oral mucositis score: significantly decreased
  visually confirmed oral mucositis levels vs non-PLAG-treated group: significantly reduced
[1]; days 7 and 10
  neutrophil number in blood: significantly increased
[1]; day 18, n=7
  survival rate: 85%
[2]; 6.5 Gy, 250 mg/kg/day 30 days
  skin damage (erythema and reddening) on the tails vs PBS: substantial reduction of tail erythema
[2]; 8 Gy, 250 mg/kg/day 17 days, n=5 females
  skin damage (necrosis, ulceration, blistering, hair loss) on tails and feet vs PBS: extensively reduced
[2]; 8 Gy, 250 mg/kg, n=5, day 10
  mice with any skin damage on the tails: none of the five
  mice with slight hemorrhagic telangiectasia on the front right feet: Only one individual
[3]
  amount of DAMP (HMGB1, S100A9) in blood vs control group: reduced
[4]; [7]
  AUC(0-t): 39.5 ± 14.8 ng·h/mL
  Cmax: 7.8 ± 3.4 ng/mL
  Tmax: 0.4 ± 0.3 h
[4]; [8]
  AUC(0-t): 21.6 ± 11.7 ng·h/mL
  Cmax: 2.7 ± 1.4 ng/mL
  Tmax: 2.8 ± 2.4 h
[4]; [9]
  AUC(0-t): 8.6 ± 3.7 ng·h/mL
  Cmax: 1.9 ± 0.6 ng/mL
  Tmax: 3.1 ± 4.5 h
[4]; [10]
  AUC(0-t): 38.5 ± 10.3 ng·h/mL
  Cmax: 4.1 ± 1.4 ng/mL
  Tmax: 7.8 ± 8.4 h
[4]; [11]
  AUC(0-t): 41.3 ± 12.1 ng·h/mL
  Cmax: 9.8 ± 2.9 ng/mL
  Tmax: 0.7 ± 0.2 h
[4]; [12]
  AUC(0-t): 25.3 ± 7.1 ng·h/mL
  Cmax: 9.7 ± 4.7 ng/mL
  Tmax: 5.2 ± 8.6 h
[4]; [13]
  AUC(0-t): 80.8 ± 124 ng·h/mL
  Cmax: 17.2 ± 23.3 ng/mL
  Tmax: 1.8 ± 2.1 h
[4]; [14]
  AUC(0-t): 51.3 ± 22.6 ng·h/mL
  Cmax: 12.8 ± 9.9 ng/mL
  Tmax: 7.6 ± 8.5 h
[4]; [15]
  AUC(0-t): 73.9 ± 27.1 ng·h/mL
  Cmax: 31.4 ± 14.9 ng/mL
  Tmax: 0.6 ± 0.2 h
[4]; [16]
  AUC(0-t): 40.7 ± 23.4 ng·h/mL
  Cmax: 16.4 ± 11.2 ng/mL
  Tmax: 0.6 ± 0.2 h
[4]; [17]
  AUC(0-t): 16.2 ± 7.8 ng·h/mL
  Cmax: 17.9 ± 17.5 ng/mL
  Tmax: 0.6 ± 0.2 h
[4]; [18]
  AUC(0-t): 76.6 ± 9.8 ng·h/mL
  Cmax: 19.4 ± 12.3 ng/mL
  Tmax: 2.8 ± 4.2 h
[4]; [19]
  AUC(0-t): 123 ± 17.8 ng·h/mL
  Cmax: 60.7 ± 14.6 ng/mL
  Tmax: 0.7 ± 0.2 h
[4]; [20]
  AUC(0-t): 57.1 ± 39.7 ng·h/mL
  Cmax: 14.2 ± 3 ng/mL
  Tmax: 5.2 ± 8.6 h
[4]; [21]
  AUC(0-t): 67.3 ± 34.1 ng·h/mL
  Cmax: 61 ± 42.1 ng/mL
  Tmax: 0.6 ± 0.2 h
[4]; [22]
  AUC(0-t): 75.9 ± 16 ng·h/mL
  Cmax: 32.1 ± 8 ng/mL
  Tmax: 0.5 h
[5]
  Residual Concentration Relative to the Initial Dose After Reaction for 1 hr in Plasma: >99%
[6]
  Residual Concentration Relative to the Initial Dose After Reaction for 1 hr in Plasma: >99%
